Usually melting point stands for the temperature, or range, at which the solid turns liquid.

In one series the test system is IL-4. The series can be described thus: In vivo ovalbumin (OVA) mouse model, BALF IL-4. Conditions: i.n. How it is done: (§1) This model is designed to determine the ability of a test article to modulate an antigen-induced pulmonary inflammatory cell accumulation in sensitized Balb/c mice from Charles River Laboratories. The mice are given a two week time period from arrival date prior to sensitizations.
(§2) On days 0, 7, 14, each animal is injected intraperitoneal (i.p.) with a 0.2 ml Ovalbumin Hydragel solution. Each animal receives 10 μg of Ovalbumin in 0.2 mL of Hydragel, aluminum hydroxide adsorptive gel containing 2% aluminum oxide. On Day 21, the animals are dosed with test compounds 30-60 minutes prior to 5% Ovalbumin aerosolized challenge. On day 22, BALF samples are collected from one group of animals and used for cytokine analysis. On day 24, BALF is obtained from a second group of animals and used for differential cell counts.
(§3) Test System: Female Babl/cJ mice (Jackson Laboratories), approximately 6-9 weeks old, each weighing approximately 20 to 25 grams, are divided into ten animals per group.
(§4) Sensitization Regimen: Mice are sensitized by an intraperitoneal injection of 10 μg ovalbumin (OVA) mixed in 4 mg aluminum hydroxide Al(OH)3 gel suspension in 0.2 ml sterile saline on Days 0, 7 and 14. This suspension is prepared one hour before intraperitoneal injection into each mouse. The animals are ready for OVA challenge on Day 21.
(§5) Antigen Challenge: Animals are exposed to aerosolized OVA on day 21 (5% w/v in sterile saline) for 20 minutes. The aerosol is generated by a PARI-Master nebulizer, the outlet of which is connected to a small Plexiglas® chamber containing the animals. Bronchoalveolar lavage is performed on Day 22.
(§6) Method of Study Performance: On day 24, 72 hours following aerosol OVA exposure, a separate group of animals are anesthetized with urethane (0.15-0.2 gm/kg) and the trachea is exposed and cannulated. Lungs are lavaged with 2×0.5 ml Hank's balanced salt solution without Ca^2+ and Mg^2+ (HBSS; Gibco, Grand Island, N.Y.) containing 0.1% EDTA. Lavage fluid is recovered after 30 sec by gentle aspiration and pooled for each animal. Samples are centrifuged at 2000 rpm for 15 minutes at 5° C. After centrifugation, individual supernatants are stored frozen at −80° C. The resulting pellet is resuspended in 0.5 ml of HBSS containing 0.1% EDTA. Total cells and eosinophils are determined using a Technicon Hl and cytoslides, respectively.
Administration of the Test/Control Article: The test article and vehicle dosing preparations are administered once to each anesthetized mouse intranasally using a 200 μl pipette at 30-60 minutes prior to OVA challenge. Each animal receives 50 μl (25 μl/nostril) at each time point. Method of Euthanasia: Urethane overdose at in-life completion.
Statistical Analysis: Total cell and eosinophil number from various treatment groups is compared using an ANOVA followed by a multiple comparison test.
Compounds administered 30 minutes before aerosol ovalbumin challenge in ova sensitized mice. BALF harvested 24 hours after aerosol challenge. N=6/group.
FIG. 1 summarizes results from one representative experiment (out of three) in which in addition to BALF cytokines, lung eosinophilia is also determined. Mice (12 animals per group) are sensitized with 0.2 ml of an AlOH3 hydrogel suspension (2% AlOH3) containing 50 μg/ml ovalbumin on days 0, 7 and 14. […] After the OVA challenge for 24 hours, the mice underwent bronchoalveolar lavage and IL-4 and IL-13 levels in the BALF are determined by ELISA. […]

The subject of another series is Swiss 3T3 fibroblasts. The series can be described thus: In vitro cytotoxicity assay on contact inhibited 3T3 fibroblasts (MTS). Type of series: cell-based. Conditions: non-dividing 3T3 cells. On the procedure: Other toxicity assays may be used.
Any compound killing 3T3 fibroblast cells was omitted from further studies.
Contact inhibited Swiss 3T3 fibroblasts are purchased from ATCC.
All compound dilutions are assayed in triplicate. […] Cells are returned to the incubator for 2 days.
Media is added to blank wells for background calculations.
Note that starting concentration of CsA was 1 μM.

A further series has as its system eosinophils. In words: In vivo ovalbumin (OVA) mouse model, BALF eosinophils. Conditions: i.n., 30 mg/kg. On the procedure:
as §1, §2, §3, §4, §5
as §6, with “respectively. […]” for “respectively.”
FIG. 1 summarizes results from one representative experiment (out of three) in which in addition to BALF cytokines, lung eosinophilia is also determined. […] After the OVA challenge for 24 hours, the mice underwent bronchoalveolar lavage and IL-4 and IL-13 levels in the BALF are determined by ELISA. […]

Structures can show the parent of a compound that is named as a salt. Starred links: 1 amine or outer side, 2 acyl side, 3 side chain; linkers in the order of their positions; H or OH if unused. Positions of bridges follow the written chain, without caps; N, C: chain ends. Non-standard residues stand in square brackets, D forms with d. Residues, ends and D or L forms follow the SMILES beside them. Chains are numbered I, II in the order given. Actinocin(9to1) = Cc1c2oc3c(C)ccc(C(=O)[*:1])c3nc-2c(C(=O)[*:2])c(N)c1=O; NMeV = CN[C@H](C(=O)O)C(C)C; Sar = CNCC(=O)O

Turning to `O=C(O)c1[nH]c2ccccc2c1Nc1ccncc1` [28 (maleate salt), 3-(4-Pyridinylamino)-1H-indole-2-carboxylic acid], the “IL-4% ctl At 24 hours” value in the series with IL-4 (12 mg/kg) is reported as 50 % ctl. As to `Cc1c2oc3c(C)ccc(C(=O)N[C@@H]4C(=O)N[C@H](C(C)C)C(=O)N5CCC[C@H]5C(=O)N(C)CC(=O)N(C)[C@@H](C(C)C)C(=O)O[C@@H]4C)c3nc-2c(C(=O)N[C@@H]2C(=O)N[C@H](C(C)C)C(=O)N3CCC[C@H]3C(=O)N(C)CC(=O)N(C)[C@@H](C(C)C)C(=O)O[C@@H]2C)c(N)c1=O` [Actinomycin D, reference compound] (I: T[dV]P[Sar][NMeV] / II: T[dV]P[Sar][NMeV]; ester I:1-I:C, II:1-II:C; linker I:N-II:N via Actinocin(9to1)), in the series on Swiss 3T3 fibroblasts, the “toxic effects on quiescent 3T3 cells (in words)” value is on record as “the only compound which effected the viability”. As for `CCOC(=O)c1[nH]c2ccccc2c1Nc1ccncc1` [Example 11, 3-(4-pyridinylamino)-1H-indole-2-carboxylic acid, ethyl ester], the melting point lay within 248 to 250 °C. For `CCOC(=O)c1[nH]c2cc(Cl)ccc2c1Nc1ccncc1` [Example 13, 6-chloro-3-(4-pyridinylamino)-1H-indole-2-carboxylic acid, ethyl ester], the melting point was 258 to 261 °C (dec.).

Consider `CCOC(=O)c1[nH]c2cc(-c3ccccc3)ccc2c1Nc1ccncc1` [Example 18, 6-phenyl-3-(4-pyridinylamino)-1H-indole-2-carboxylic acid, ethyl ester], for which the melting point fell in the range of 241 to 243 °C. For `CCOC(=O)c1c(Nc2ccncc2)c2ccccc2n1C` [Example 24A (maleate salt), 1-Methyl-3-(4-pyridinylamino)-1H-indole-2-carboxylic ethyl ester], the “Eos % ctl At 72 hours” value with eosinophils amounted to 8 % ctl. In addition, in the series on IL-4 (30 mg/kg), the “IL-4% ctl At 24 hours” value was found to be 3 % ctl. For `O=C(O)c1[nH]c2ccccc2c1Nc1ccncc1` [Example 28-EF, 3-(4-Pyridinylamino)-1H-indole-2-carboxylic acid] the same measures were 42 % ctl and 27 % ctl. For `O=C(O)c1[nH]c2ccccc2c1Nc1ccncc1` [Example 28-ZD, 3-(4-Pyridinylamino)-1H-indole-2-carboxylic acid] the same measures were 37.4 % ctl and 49.6 % ctl. The like results for `CCOC(=O)c1[nH]c2cc(Cl)cc(Cl)c2c1NS(=O)(=O)c1ccccc1` [Example 90, 3-((Phenylsulfonyl)amino)-4,6-dichloro-1H-indole-2-carboxylic acid ethyl ester] were, in that order, 71 % ctl and 37 % ctl.
